From patent US6355799B1, “Substituted benzene compounds, process for their preparation, and herbicidal and defoliant compositions containing them” (ISK Americas Incorporated, priority 1997, dated 2002)

How the values were obtained:
Format in all cases: in vivo
[1] = tested on: large crabgrass (Digitaria sanguinalis, DIGSA); test: Pre-emerge test, greenhouse herbicide activity screening; conditions: pre-emerge, 14 days after application, rating scale 0-100
Summary of the method: (§1)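 Compounds in acetone were track-sprayed at 15-1000 g ai/ha (187 l/ha) on sandy loam pots: pre-emerge one day after seeding, post-emerge at 2-3 leaf stage with 0.25% v/v non-ionic surfactant. Phytotoxicity was rated 14 days later on a 0 (no damage) to 100 (complete death) scale.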

[2] = tested on: green foxtail (Setaria viridis, SETVI); test: as above; conditions: pre-emerge, 14 days after application, rating scale 0-100
Summary of the method: as §1

[3] = tested on: barnyardgrass (Echinochloa crus-galli, ECHCG); test: as above; conditions: pre-emerge, 14 days after application, rating scale 0-100
Summary of the method: as §1

[4] = tested on: johnsongrass (Sorghum halepense, SORHA); test: as above; conditions: pre-emerge, 14 days after application, rating scale 0-100
Summary of the method: as §1

[5] = tested on: sicklepod (Cassia obtusifolia, CASOB); test: as above; conditions: pre-emerge, 14 days after application, rating scale 0-100
Summary of the method: as §1

[6] = tested on: lambsquarters (Chenopodium album, CHEAL); test: as above; conditions: pre-emerge, 14 days after application, rating scale 0-100
Summary of the method: as §1

[7] = tested on: velvetleaf (Abutilon theophrasti, ABUTH); test: as above; conditions: pre-emerge, 14 days after application, rating scale 0-100
Summary of the method: as §1

[8] = tested on: ivyleaf morningglory (Ipomoea hederacea, IPOHE); test: as above; conditions: pre-emerge, 14 days after application, rating scale 0-100
Summary of the method: as §1

[9] = tested on: upland rice (Oryza sp., var. Tebonnet, RICE); test: Pre-emerge test, crop safety; conditions: pre-emerge, 14 days after application, rating scale 0-100
Summary of the method: (§2)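 Fourteen days after spraying, crop and weed injury was graded visually from 0, no effect, to 100, every plant dead. Test substances were dissolved in acetone and applied at 15–1000 g ai/ha with a flat-fan nozzle. Application was either pre-emergence, one day after sowing, or post-emergence at the 2–3 leaf stage.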

[10] = tested on: field corn (Zea mays L., var. Dekalb 535, CORN); test: Pre-emerge test, crop safety; conditions: pre-emerge, 14 days after application, rating scale 0-100
Summary of the method: as §2

[11] = tested on: redroot pigweed (Amaranthus retroflexus, AMARE); test: Pre-emerge test, greenhouse herbicide activity screening; conditions: pre-emerge, 14 days after application, rating scale 0-100
Summary of the method: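 Rating: 0–100 visual injury, 14 DAA. Application: acetone, 187 l/ha, 15–1000 g ai/ha, flat-fan track sprayer with nozzle 40–45 cm above soil or canopy. Post-emerge runs used 0.25% v/v surfactant on 2–3 leaf plants.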

[12] = tested on: upland rice (Oryza sp., var. Tebonnet, RICE); test: Post-emerge test, crop safety; conditions: rating scale 0-100 (0 no damage, 100 complete death), 14 days after application
Summary of the method: as §1

[13] = tested on: field corn (Zea mays L., var. Dekalb 535, CORN); test: Post-emerge test, crop safety; conditions: rating scale 0-100 (0 no damage, 100 complete death), 14 days after application
Summary of the method: as §1

[14] = tested on: large crabgrass (Digitaria sanguinalis, DIGSA); test: Post-emerge test, greenhouse herbicide activity screening; conditions: rating scale 0-100 (0 no damage, 100 complete death), 14 days after application
Summary of the method: (§3)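 Herbicidal damage is scored 0 (none) to 100 (complete plant death) two weeks after a simulated field spray. Rates span 15–1000 g ai/ha, delivered in acetone at 187 l/ha. For post-emergence treatments, plants have 2–3 leaves and the spray carries 0.25% v/v non-ionic surfactant.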

[15] = tested on: green foxtail (Setaria viridis, SETVI); test: as above; conditions: rating scale 0-100 (0 no damage, 100 complete death), 14 days after application
Summary of the method: as §3

[16] = tested on: barnyardgrass (Echinochloa crus-galli, ECHCG); test: as above; conditions: rating scale 0-100 (0 no damage, 100 complete death), 14 days after application
Summary of the method: as §3

[17] = tested on: johnsongrass (Sorghum halepense, SORHA); test: as above; conditions: rating scale 0-100 (0 no damage, 100 complete death), 14 days after application
Summary of the method: as §3

[18] = tested on: redroot pigweed (Amaranthus retroflexus, AMARE); test: as above; conditions: rating scale 0-100 (0 no damage, 100 complete death), 14 days after application
Summary of the method: as §3

[19] = tested on: sicklepod (Cassia obtusifolia, CASOB); test: as above; conditions: rating scale 0-100 (0 no damage, 100 complete death), 14 days after application
Summary of the method: as §3

[20] = tested on: lambsquarters (Chenopodium album, CHEAL); test: as above; conditions: rating scale 0-100 (0 no damage, 100 complete death), 14 days after application
Summary of the method: as §3

[21] = tested on: velvetleaf (Abutilon theophrasti, ABUTH); test: as above; conditions: rating scale 0-100 (0 no damage, 100 complete death), 14 days after application
Summary of the method: as §3

[22] = tested on: ivyleaf morningglory (Ipomoea hederacea, IPOHE); test: as above; conditions: rating scale 0-100 (0 no damage, 100 complete death), 14 days after application
Summary of the method: as §3

Question: For `CCOC(=O)C(Cl)(CC(=O)OC)Cc1c(OC)c(Cl)cc(F)c1-n1c(=O)cc(C(F)(F)F)n(C)c1=O` (centres unmarked) [14-50], which “phytotoxicity rating DIGSA” value ([1]; 63 g ai/ha) is on record?
Answer: 0

Question: What about the “phytotoxicity rating DIGSA” value ([1]; 250 g ai/ha) of the same molecule?
Answer: 40

Question: And the “phytotoxicity rating SETVI” value ([2]; 63 g ai/ha)?
Answer: 0

Question: What about the “phytotoxicity rating SETVI” value ([2]; 250 g ai/ha) of the same molecule?
Answer: 50

Question: And the “phytotoxicity rating ECHCG” value ([3]; 63 g ai/ha)?
Answer: 0

Question: What about the “phytotoxicity rating ECHCG” value ([3]; 250 g ai/ha) of the same molecule?
Answer: 30

Question: And the “phytotoxicity rating SORHA” value ([4]; 63 g ai/ha)?
Answer: 50

Question: What about the “phytotoxicity rating SORHA” value ([4]; 250 g ai/ha) of the same molecule?
Answer: 95

Question: What about the “phytotoxicity rating CASOB” value ([5]; 63 g ai/ha) of the same molecule?
Answer: 0

Question: And the “phytotoxicity rating CASOB” value ([5]; 250 g ai/ha)?
Answer: 30

Question: And the “phytotoxicity rating CHEAL” value ([6]; 63 g ai/ha)?
Answer: 100

Question: What about the “phytotoxicity rating CHEAL” value ([6]; 250 g ai/ha) of the same molecule?
Answer: 100

Question: And the “phytotoxicity rating ABUTH” value ([7]; 63 g ai/ha)?
Answer: 0

Question: What about the “phytotoxicity rating ABUTH” value ([7]; 250 g ai/ha) of the same molecule?
Answer: 50

Question: What about the “phytotoxicity rating IPOHE” value ([8]; 63 g ai/ha) of the same molecule?
Answer: 10

Question: What about the “phytotoxicity rating IPOHE” value ([8]; 250 g ai/ha) of the same molecule?
Answer: 70

Question: What about the “phytotoxicity rating RICE” value ([9]; 63 g ai/ha) of the same molecule?
Answer: 0

Question: And the “phytotoxicity rating RICE” value ([9]; 250 g ai/ha)?
Answer: 0

Question: What about the “phytotoxicity rating CORN” value ([10]; 63 g ai/ha) of the same molecule?
Answer: 10

Question: And the “phytotoxicity rating CORN” value ([10]; 250 g ai/ha)?
Answer: 90

Question: And the “phytotoxicity rating AMARE” value ([11]; 63 g ai/ha)?
Answer: 100

Question: What about the “phytotoxicity rating AMARE” value ([11]; 250 g ai/ha) of the same molecule?
Answer: 100

Question: What about the “Post-emerge phytotoxicity rating RICE (crop damage)” value ([12]; Rate 63 g ai/ha) of the same molecule?
Answer: 30

Question: What about the “Post-emerge phytotoxicity rating RICE (crop damage)” value ([12]; Rate 250 g ai/ha) of the same molecule?
Answer: 50

Question: And the “Post-emerge phytotoxicity rating CORN (crop damage)” value ([13]; Rate 63 g ai/ha)?
Answer: 10

Question: What about the “Post-emerge phytotoxicity rating CORN (crop damage)” value ([13]; Rate 250 g ai/ha) of the same molecule?
Answer: 30

Question: What about the “Post-emerge Herbicidal Activity, phytotoxicity rating DIGSA” value ([14]; Rate 63 g ai/ha) of the same molecule?
Answer: 0

Question: What about the “Post-emerge Herbicidal Activity, phytotoxicity rating DIGSA” value ([14]; Rate 250 g ai/ha) of the same molecule?
Answer: 50

Question: What about the “Post-emerge Herbicidal Activity, phytotoxicity rating SETVI” value ([15]; Rate 63 g ai/ha) of the same molecule?
Answer: 0

Question: What about the “Post-emerge Herbicidal Activity, phytotoxicity rating SETVI” value ([15]; Rate 250 g ai/ha) of the same molecule?
Answer: 0

Question: What about the “Post-emerge Herbicidal Activity, phytotoxicity rating ECHCG” value ([16]; Rate 63 g ai/ha) of the same molecule?
Answer: 0

Question: And the “Post-emerge Herbicidal Activity, phytotoxicity rating ECHCG” value ([16]; Rate 250 g ai/ha)?
Answer: 0

Question: What about the “Post-emerge Herbicidal Activity, phytotoxicity rating SORHA” value ([17]; Rate 63 g ai/ha) of the same molecule?
Answer: 0

Question: And the “Post-emerge Herbicidal Activity, phytotoxicity rating SORHA” value ([17]; Rate 250 g ai/ha)?
Answer: 0

Question: And the “Post-emerge Herbicidal Activity, phytotoxicity rating AMARE” value ([18]; Rate 63 g ai/ha)?
Answer: 100

Question: And the “Post-emerge Herbicidal Activity, phytotoxicity rating AMARE” value ([18]; Rate 250 g ai/ha)?
Answer: 100

Question: And the “Post-emerge Herbicidal Activity, phytotoxicity rating CASOB” value ([19]; Rate 63 g ai/ha)?
Answer: 90

Question: What about the “Post-emerge Herbicidal Activity, phytotoxicity rating CASOB” value ([19]; Rate 250 g ai/ha) of the same molecule?
Answer: 100

Question: What about the “Post-emerge Herbicidal Activity, phytotoxicity rating CHEAL” value ([20]; Rate 63 g ai/ha) of the same molecule?
Answer: 50

Question: What about the “Post-emerge Herbicidal Activity, phytotoxicity rating CHEAL” value ([20]; Rate 250 g ai/ha) of the same molecule?
Answer: 100

Question: And the “Post-emerge Herbicidal Activity, phytotoxicity rating ABUTH” value ([21]; Rate 63 g ai/ha)?
Answer: 30

Question: What about the “Post-emerge Herbicidal Activity, phytotoxicity rating ABUTH” value ([21]; Rate 250 g ai/ha) of the same molecule?
Answer: 50

Question: What about the “Post-emerge Herbicidal Activity, phytotoxicity rating IPOHE” value ([22]; Rate 63 g ai/ha) of the same molecule?
Answer: 0

Question: What about the “Post-emerge Herbicidal Activity, phytotoxicity rating IPOHE” value ([22]; Rate 250 g ai/ha) of the same molecule?
Answer: 0
